Tests used:
T-47D = test: MTT anti-proliferative assay, T-47D breast cancer cells; assay type: cell-based; conditions: Homo sapiens, T47D, 48 h exposure, mean ± SD of three separate experiments
Method: (§1) 1. Anti-proliferative activity toward human breast cell lines
(§2) The two examined human breast cancer cell lines (T-47D and MCF-7) have been obtained from American Type Culture Collection (ATCC). Cells lines were maintained as monolayers in Dulbecco’s Modified Eagle’s Medium (DMEM) supplemented with 10% FBS, 2 mM L-glutamine, 100 U/ml penicillin and 100µg/ml streptomycin sulfate. Cells were sub-cultured with trypsine /EDTA solution, counted with haemocytometer and plated onto 96-well plates (5000 cells/well) and left overnight to form a semi-confluent monolayer. Cell monolayers were treated in quadrates with vehicle (DMSO, 0.1% v/v), test samples or Adriamycin as positive control for an exposure time of 48 h. At the end of exposure, MTT solution in PBS (5 mg/ml) was then added to all well including no cell blank and left to incubate for 90 min. The formation of formazan crystals were visually confirmed using phase contract microscopy. DMSO (100 µl/well) was added to dissolve the formazan crystals with shaking for 10 min after which the absorbance was read at 590 nm against no cell blanks on a FLuo Star Optima microplate reader (BMG technologies, Germany).
(§3) Cell proliferation was calculated comparing the OD values of the DMSO control wells and those of the samples represented as % proliferation to the control. Dose-response experiment was performed on samples producing > or =50% loss of cell proliferation using five serial 2-fold […]
(§4) IC50 values (concentration of sample causing 50% loss of cell proliferation of the vehicle control) were calculated using non-linear regression curve fitting of the dose response plots on GraphPad Prism V.6.0 software. […]

MCF-7 = test: MTT anti-proliferative assay, MCF-7 breast cancer cells; assay type: cell-based; conditions: Homo sapiens, MCF7, 48 h exposure, mean ± SD of three separate experiments
Method: as §1, §2, §3, §4

GSK-3β = target: T1, GSK-3β (Homo sapiens, UniProt P49841); test: GSK-3β kinase inhibition (GSK3β Assay Kit, BPS Biosciences); assay type: biochemical; conditions: mean ± SD of three separate experiments
T1 construct: purchased BPS Biosciences, San Diego, CA, USA 79700
Method: (§5) 2. CDK2/GSK-3β Kinase Inhibitory Activities
(§6) The CDK2 and GSK-3β inhibitory activities were determined for hybrids 5a-g using the CDK2
(§7) Kinase Enzyme System (catalog No. V2971) (Promega, Milan, Italy), and GSK3β Assay Kit

CDK2 = target: T2, CDK2 (Homo sapiens, UniProt P24941); test: CDK2 kinase inhibition (CDK2 Kinase Enzyme System, Promega); assay type: biochemical; conditions: mean ± SD of three separate experiments
T2 construct: purchased Promega, Milan, Italy V2971
Method: as §5, §6, §7

MCF-10A = test: MTT cytotoxicity towards non-tumorigenic breast cells MCF-10A; assay type: cell-based, human
Source text: In order to investigate their selectivity on cancer cells, hybrids 5d, 5e and 5f, endowed with dual growth inhibitory action against MCF-7 and T-47D cells, were assesses for their cytotoxic action towards the non-tumorigenic breast cells (MCF-10A), via the MTT assay. The obtained IC50s and the calculated mean tumour selectivity index (S.I.); IC50 for MCF-10A/IC50 average for (MCF-7 and T-47D) have been presented in Table 5.
as §1, §2
Cell proliferation was calculated comparing the OD values of the DMSO control wells and those of the samples represented as % proliferation to the control. Dose-response experiment was performed on samples producing > or =50% loss of cell proliferation using five serial 2-fold dilutions (50, 25, 12.5, 6.25 and 3.125 µM) of the sample. IC50 values (concentration of sample causing 50% loss of cell proliferation of the vehicle control) were calculated using non-linear regression curve fitting of the dose response plots on GraphPad Prism V.6.0 software. […]

MCF-7 cells [1] = test: Annexin V-FITC/PI dual staining apoptosis assay in MCF-7 cells; assay type: cell-based, human; conditions: at IC50 concentration
Method: To investigate further the effect of the promising compounds 5d, 5e, and 5f on cell apoptosis, Annexin V-FITC/propidium iodide dual staining assay was performed according to the reported method. The morphological markers of apoptosis in the breast cancer MCF-7 cell line were examined before and after treatment with the compounds of interest. Apoptosis assay depends on the translocation of the phosphatidylserine (PS) phospholipid to the cell surface in cells undergoing apoptosis which can be easily detected by staining with the fluorescent conjugate of annexin V followed by flow cytometry analysis. Simultaneously, MCF-7 cells were stained with propidium iodide (PI) which could enter cells with damaged plasma membranes only. This enables the discrimination between early apoptotic cells (positive for PS, but negative for PI) from late apoptotic and necrotic cells (positive for both PS and PI). […]
4. Annexin V-FITC Apoptosis Assay
Phosphatidylserine externalization was assayed using Annexin V-FITC/PI apoptosis detection kit (BD Biosciences, USA) according to the manufacturer’s instructions. Breast cancer MCF-7 cells were cultured to a monolayer then treated with hybrids (5d, 5e and 5f) at their IC50 concentration. Briefly, cells were then harvested via trypsinization, and rinsed twice in PBS followed by binding buffer. Moreover, cells were re-suspended in 100 μL of binding buffer with the addition of 1 μL of FITC-Annexin V followed by an incubation period of 30 min at 4 °C. Cells were then rinsed in binding buffer and resuspended in 150 μL of binding buffer with the addition of 1 μL of DAPI (1 μg/μL in PBS). Cells were then analyzed using the flow cytometer BD FACS Canto II and the results were interpreted with FlowJo7.6.4 software (Tree Star, Ashland, OR,

MCF-7 cells [2] = test: Cell cycle analysis by flow cytometry (PI stain) in MCF-7 cells; assay type: cell-based, human; conditions: 24 h, at IC50 concentration
Method: Compounds showing promising antiproliferative as well as kinase inhibitory activity 5d, 5e and 5f were further investigated for their influence on the cell cycle progression by flow cytometry analysis using propidium iodide (PI) stain. Cell cycle parameters were compared for the breast cancer MCF-7 cells with DMSO as control and after treatment with the compounds of interest and incubation for 24 h, and the results were presented in Figure 5 and Table 3. […]
concentration), and then cells were washed twice with ice-cold phosphate buffered saline (PBS).
Subsequently, the treated cells were collected by centrifugation, fixed in ice-cold 70% (v/v) ethanol, washed with PBS, re-suspended with 100 μg/mL RNase, stained with 40 μg/mL PI, and analyzed by flow cytometry using FACS Calibur (Becton Dickinson, BD, Franklin Lakes, NJ,

T1 sequence (P49841 whole entry): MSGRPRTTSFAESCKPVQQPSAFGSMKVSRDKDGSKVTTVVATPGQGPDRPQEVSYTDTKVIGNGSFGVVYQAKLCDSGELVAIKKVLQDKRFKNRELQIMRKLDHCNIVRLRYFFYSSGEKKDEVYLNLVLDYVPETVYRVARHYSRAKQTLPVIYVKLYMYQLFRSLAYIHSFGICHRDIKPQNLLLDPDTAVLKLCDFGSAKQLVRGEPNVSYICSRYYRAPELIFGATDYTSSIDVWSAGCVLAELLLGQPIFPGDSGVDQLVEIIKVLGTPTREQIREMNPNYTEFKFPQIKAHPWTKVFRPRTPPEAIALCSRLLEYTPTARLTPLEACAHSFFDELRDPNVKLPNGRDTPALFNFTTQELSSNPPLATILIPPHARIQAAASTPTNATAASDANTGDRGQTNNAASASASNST

SMILES | IC50 (T-47D) [µM] | IC50 (MCF-7) [µM] | melting point [°C] | IC50 (GSK-3β) [µM] | IC50 (CDK2) [µM] | other results
CC(C)CN1C(=O)C(=NNC(=O)c2cc3cc(Br)ccc3o2)c2cc(Br)ccc21 [7g, 5-Bromo-N'-(5-bromo-1-isobutyl-2-oxoindolin-3-ylidene)benzofuran-2-carbohydrazide] | 9.67 ± 0.31 | 24.8 ± 0.73 | 244 to 246 |  |  | 
CC(C)CN1C(=O)C(=NNC(=O)c2cc3cc(Br)ccc3o2)c2ccccc21 [7c, 5-Bromo-N'-(1-isobutyl-2-oxoindolin-3-ylidene)benzofuran-2-carbohydrazide] | 43.3 ± 2.39 | 37 ± 1.87 | 216 to 218 |  |  | 
O=C1Nc2ccccc2C1=NNC(=O)c1cc2cc(Br)ccc2o1 [5a, 5-Bromo-N'-(2-oxoindolin-3-ylidene)benzofuran-2-carbohydrazide] | 9.67 ± 0.31 | 5.47 ± 0.16 | > 300 | 0.137 ± 0.0075 | 0.141 ± 0.0077 | 
O=C1Nc2ccc(Cl)cc2C1=NNC(=O)c1cc2cc(Br)ccc2o1 [5c, 5-Bromo-N'-(5-chloro-2-oxoindolin-3-ylidene)benzofuran-2-carbohydrazide] | 6.03 ± 0.19 | 12.5 ± 0.37 | > 300 | 0.102 ± 0.0056 | 0.0854 ± 0.0046 | 
CCOC(=O)CN1C(=O)C(=NNC(=O)c2cc3cc(Br)ccc3o2)c2ccccc21 [7d, Ethyl-2–(3-(2–(5-bromobenzofuran-2-carbonyl)hydrazono)-2-oxoindolin-1-yl)acetate] | 19 ± 0.62 | 7.48 ± 0.22 | 215 to 216 |  |  | 
COc1ccc2c(c1)C(=NNC(=O)c1cc3cc(Br)ccc3o1)C(=O)N2 [5f, 5-Bromo-N'-(5-methoxy-2-oxoindolin-3-ylidene)benzofuran-2-carbohydrazide] | 7.8 ± 0.25 | 2.27 ± 0.06 | > 300 | 0.0401 ± 0.0022 | 0.0528 ± 0.0029 | IC50 (MCF-10A; Homo sapiens, MCF-10A, MTT assay, non-tumorigenic breast cell line): 40 ± 1.42 µM; Mean tumour selectivity index (S.I.) (MCF-10A; IC50 for MCF-10A/IC50 average for (MCF-7 and T-47D)): 7.9; Late Apoptosis (Upper Right %) (MCF-7 cells [1]; control 0.19): 22.16%; Early Apoptosis (Lower Right %) (MCF-7 cells [1]; control 0.63): 3.94%; Total apoptosis (L.R % + U.R %) (MCF-7 cells [1]; control 0.82): 26.10%; Necrosis (MCF-7 cells [1]; upper left quadrant, control 0.49): 2.14%; %Sub-G1 (MCF-7 cells [2]; control 1.29): 22.02%; %G2/M (MCF-7 cells [2]; control 11.3): 37.82%; %S (MCF-7 cells [2]; control 33.82): 17.88%; %G0-G1 (MCF-7 cells [2]; control 53.59): 22.28%
O=C(NN=C1C(=O)N(Cc2ccccc2)c2ccccc21)c1cc2cc(Br)ccc2o1 [7e, N'-(1-Benzyl-2-oxoindolin-3-ylidene)-5-bromobenzofuran-2-carbohydrazide] | 11.8 ± 0.38 | 8.33 ± 0.24 | 248 to 250 |  |  | 
CN1C(=O)C(=NNC(=O)c2cc3cc(Br)ccc3o2)c2ccccc21 [7a, 5-Bromo-N'-(1-methyl-2-oxoindolin-3-ylidene)benzofuran-2-carbohydrazide] | 11.8 ± 1.05 | 10.4 ± 1.01 | 260 to 262 |  |  | 
C=CCN1C(=O)C(=NNC(=O)c2cc3cc(Br)ccc3o2)c2ccccc21 [7b, N'-(1-Allyl-2-oxoindolin-3-ylidene)-5-bromobenzofuran-2-carbohydrazide] | 12.2 ± 0.4 | 2.64 ± 0.07 | 207 to 209 |  |  | 
O=C(NN=C1C(=O)N(Cc2ccccc2)c2ccc(Br)cc21)c1cc2cc(Br)ccc2o1 [7h, N'-(1-Benzyl-5-bromo-2-oxoindolin-3-ylidene)-5-bromobenzofuran-2-carbohydrazide] | 1.72 ± 0.04 | 4.32 ± 0.12 | 236 to 237 |  |  | 
Cc1cc(C)c2c(c1)C(=NNC(=O)c1cc3cc(Br)ccc3o1)C(=O)N2 [5g, 5-Bromo-N'-(5,7-dimethyl-2-oxoindolin-3-ylidene)benzofuran-2-carbohydrazide] | 6.65 ± 0.21 | 12 ± 0.35 | > 300 | 0.0755 ± 0.0041 | 0.105 ± 0.0057 | 
CC(C)CN1C(=O)C(=NNC(=O)Nc2cc3cc(Br)ccc3o2)c2ccccc21 [13a, N-(5-Bromobenzofuran-2-yl)-2–(1-isobutyl-2-oxoindolin-3-ylidene)hydrazine-1-carboxamide] | 3.22 ± 0.1 | 18.2 ± 0.53 | 208 to 210 |  |  | 
O=C(NN=C1C(=O)N(CCc2ccccc2)c2ccccc21)c1cc2cc(Br)ccc2o1 [7f, 5-Bromo-N'-(2-oxo-1-phenethylindolin-3-ylidene)benzofuran-2-carbohydrazide] | 38.7 ± 1.26 | 24.7 ± 0.72 | 239 to 241 |  |  | 
O=C1Nc2ccc(F)cc2C1=NNC(=O)c1cc2cc(Br)ccc2o1 [5b, 5-Bromo-N'-(5-fluoro-2-oxoindolin-3-ylidene)benzofuran-2-carbohydrazide] | 1.27 ± 0.04 | 12.9 ± 0.38 | > 300 | 0.212 ± 0.012 | 0.0525 ± 0.0029 | 
O=C(NN=C1C(=O)N(Cc2ccccc2)c2ccccc21)Nc1cc2cc(Br)ccc2o1 [13b, 2–(1-Benzyl-2-oxoindolin-3-ylidene)-N-(5-bromobenzofuran-2-yl)hydrazine-1-carboxamide] | 10.9 ± 0.35 | 5.7 ± 0.16 | 217 to 219 |  |  | 
